Values after ≈ are worked out from the molar mass of the structure shown.
Assays:
[1] = Inhibition of leucine aminopeptidase B (unknown origin) using 0.2 mM L-leucine-beta-naphthylamide; design: species or system Homo sapiens
[2] = biological target: T1, Aminopeptidase B (Rattus norvegicus, UniProt O09175); experiment: Inhibition of rat liver aminopeptidase B using 0.2 mM […] by colorimetry
T1 sequence (O09175 whole entry): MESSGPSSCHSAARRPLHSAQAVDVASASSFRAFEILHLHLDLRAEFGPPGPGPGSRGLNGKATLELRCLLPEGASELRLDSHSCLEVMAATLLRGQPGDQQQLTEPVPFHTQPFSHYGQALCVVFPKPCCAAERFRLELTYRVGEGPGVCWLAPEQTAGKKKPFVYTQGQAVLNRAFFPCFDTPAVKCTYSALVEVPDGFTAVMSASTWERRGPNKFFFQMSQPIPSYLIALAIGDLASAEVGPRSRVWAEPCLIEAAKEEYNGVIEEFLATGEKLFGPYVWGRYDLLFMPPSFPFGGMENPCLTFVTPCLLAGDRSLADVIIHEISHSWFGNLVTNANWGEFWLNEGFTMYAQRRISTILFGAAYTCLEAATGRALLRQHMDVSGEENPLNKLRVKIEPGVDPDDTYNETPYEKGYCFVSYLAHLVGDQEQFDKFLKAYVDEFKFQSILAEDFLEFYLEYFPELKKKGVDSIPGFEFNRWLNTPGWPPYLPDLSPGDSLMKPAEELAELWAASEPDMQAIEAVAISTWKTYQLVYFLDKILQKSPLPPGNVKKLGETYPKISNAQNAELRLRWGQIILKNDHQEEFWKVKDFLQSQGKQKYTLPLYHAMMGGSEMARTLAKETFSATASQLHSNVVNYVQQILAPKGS

[3] = Retardation factor, Rf value of the compound using BuOH-AcOH-H20 at 4:1:1 ratio by ninhydrin; assay type: physicochemical

SMILES | IC50 [1] [µg/mL] | IC50 [2] [µM] | Rf [3]
CC(C)C[C@H](NC(=O)[C@H](O)[C@H](N)Cc1ccccc1)C(=O)O | 7.5 (≈ 24.3 µM) | 324 | 0.52
N[C@H](Cc1ccccc1)[C@H](O)C(=O)NCC(=O)O | – | – | 0.26
Cc1ccc(C[C@@H](N)[C@@H](O)C(=O)N[C@@H](CC(C)C)C(=O)O)cc1 | – | – | 0.53
CSCC[C@H](NC(=O)[C@@H](O)[C@H](N)Cc1ccccc1)C(=O)O | – | – | 0.37
C[C@H](NC(=O)[C@@H](O)[C@H](N)Cc1ccccc1)C(=O)O | – | 1.01 | 0.21
CC(C)C[C@H](NC(=O)[C@H](O)CN)C(=O)O | – | > 1150 | 0.13
N[C@H](Cc1ccccc1)[C@H](O)C(=O)NCCCC(=O)O | – | 392 | 0.35
CC(C)C[C@H](NC(=O)[C@@H](O)[C@H](N)Cc1ccc(Cl)cc1)C(=O)O | – | – | 0.52
CC(C)C[C@H](NC(=O)[C@H](O)[C@H](N)c1ccccc1)C(=O)O | – | – | 0.38
CC(C)C[C@H](NC(=O)[C@H](O)[C@H](N)Cc1ccc(Cl)cc1)C(=O)O | – | – | 0.42
CC[C@H](C)[C@H](NC(=O)[C@@H](O)[C@H](N)Cc1ccccc1)C(=O)O | – | 0.13 | 0.48
NC(=O)CC[C@H](NC(=O)[C@@H](O)[C@H](N)Cc1ccccc1)C(=O)O | – | – | 0.17
Cc1ccc(C[C@@H](N)[C@H](O)C(=O)N[C@@H](CC(C)C)C(=O)O)cc1 | – | – | 0.58
CC(C)C[C@H](NC(=O)[C@@H](O)[C@H](N)CC(C)C)C(=O)O | – | – | 0.49
CC(C)C[C@H](NC(=O)[C@@H](O)CN)C(=O)O | – | 641 | 0.13
CC(C)C[C@H](NC(=O)[C@@H](O)[C@H](N)Cc1ccccc1)C(=O)O [UBENIMEX] | 0.01 (≈ 0.0324 µM) | 0.162 | 0.48
N[C@H](Cc1ccccc1)[C@H](O)C(=O)N1CCC[C@H]1C(=O)O | – | > 855 | 0.25
CC(C)C[C@H](NC(=O)[C@@H](O)[C@@H](N)Cc1ccccc1)C(=O)O | 0.07 (≈ 0.227 µM) | – | 0.37
CC(C)C[C@H](NC(=O)[C@@H](O)[C@H](N)Cc1ccc([N+](=O)[O-])cc1)C(=O)O | – | – | 0.58
N[C@H](Cc1ccccc1)[C@H](O)C(=O)N[C@@H](CCC(=O)O)C(=O)O | – | – | 0.27
CC(C)C[C@H](NC(=O)[C@H](O)[C@@H](N)Cc1ccccc1)C(=O)O | > 250 | > 811 | 0.49
CC(C)C[C@H](NC(=O)[C@H](O)[C@@H](C)N)C(=O)O | – | – | 0.23

SMILES | IC50 [1] [µg/mL] | IC50 [2] [µM] | Rf [3]
CC(C)C[C@H](NC(=O)[C@H](O)[C@H](N)CC(C)C)C(=O)O | – | – | 0.43
CC(C)C[C@@H](NC(=O)[C@@H](O)[C@H](N)Cc1ccccc1)C(=O)O | 3.4 (≈ 11 µM) | – | 0.49
N[C@H](Cc1ccccc1)[C@H](O)C(=O)NCCCCCC(=O)O | – | 357 | 0.48
CC(C)C[C@H](NC(=O)C(O)C(N)Cc1ccccc1Cl)C(=O)O (mixture of isomers) | – | – | 0.46
CC(C)C[C@@H](NC(=O)[C@H](O)[C@H](N)Cc1ccccc1)C(=O)O | > 250 | > 811 | 0.37
N[C@H](Cc1ccccc1)[C@H](O)C(=O)N[C@@H](Cc1ccccc1)C(=O)O | – | – | 0.44
CC(C)C[C@H](NC(=O)[C@@H](O)[C@H](N)CC1CCCCC1)C(=O)O | – | 3.5 | 0.47
CC(C)C[C@@H](NC(=O)[C@H](O)[C@@H](N)Cc1ccccc1)C(=O)O | > 250 | 438 | 0.48
CC(C)C[C@H](NC(=O)[C@@H](O)[C@@H](C)N)C(=O)O | – | – | 0.27
CCCCCCC(NC(=O)[C@@H](O)[C@H](N)Cc1ccccc1)C(=O)O (mixture of isomers) | – | – | 0.58
CC(C)C[C@H](NC(=O)[C@@H](O)[C@H](N)Cc1ccccc1)C(=O)NCC(=O)O | – | 93 | 0.34
CC(C)C[C@@H](NC(=O)[C@@H](O)[C@@H](N)Cc1ccccc1)C(=O)O | 2.7 (≈ 8.76 µM) | 0.162 | 0.52
NCCCC[C@H](NC(=O)[C@@H](O)[C@H](N)Cc1ccccc1)C(=O)O | – | > 773 | 0.06
N[C@H](Cc1ccccc1)[C@H](O)C(=O)N[C@@H](CO)C(=O)O | – | 2.48 | 0.2
CC(C)C[C@H](NC(=O)[C@@H](O)[C@H](N)Cc1ccc(N)cc1)C(=O)O | – | – | 0.25
CC(C)C[C@H](NC(=O)[C@@H](O)[C@H](N)c1ccccc1)C(=O)O | – | – | 0.41
CC(C)CCNC(=O)[C@@H](O)[C@H](N)Cc1ccccc1.Cl | – | 565 | 0.65
CCC[C@H](NC(=O)[C@@H](O)[C@H](N)Cc1ccccc1)C(=O)O | – | – | 0.41
CCCC[C@H](NC(=O)[C@@H](O)[C@H](N)Cc1ccccc1)C(=O)O | – | – | 0.47
CC(C)[C@H](NC(=O)[C@@H](O)[C@H](N)Cc1ccccc1)C(=O)O | – | – | 0.42
N[C@H](Cc1ccccc1)[C@H](O)C(=O)NCCC(=O)O | – | 141 | 0.34
